Earlier results, collected in US10674726B2, “Composition” (Conopco, Inc., priority 2013, dated 2020).

Conditions: at neutral pH

SMILES | Critical Micelle Concentration
CCCCCCCC(CC(=O)O)OC(=O)CC(CCCCCCC)OC1OC(C)C(O)C(O)C1OC1OC(C)C(O)C(O)C1O (centres unmarked) [dirhamnolipid, 3-[3-[4,5-dihydroxy-6-methyl-3-(3,4,5-trihydroxy-6-methyloxan-2-yl)oxyoxan-2-yl]oxydecanoyloxy]decanoic acid] | 30 mg/L
CCCCCCCC(CC(=O)O)OC(=O)CC(CCCCCCC)O[C@@H]1O[C@@H](C)[C@H](O)[C@@H](O)[C@H]1O (stereo partly drawn) [mono-rhamnolipid, 3-[3-[(2R,3R,4R,5R,6S)-3,4,5-trihydroxy-6-methyloxan-2-yl]oxydecanoyloxy]decanoic acid] | 20 mg/L
